Source: PMC2877039 (Developmental cell, 2010)

What was measured:
Assay in all cases: liposome co-sedimentation, anti-Sec2 western blot
Assay type in all cases: binding
Sec2p [1] = target: T1, Sec2p (Saccharomyces cerevisiae, UniProt P17065); conditions: GST-Sec2; liposomes with 10 mol% PI4P; PBS, 0.4 mg/ml BSA, 25 °C
T1 sequence (P17065 1-759): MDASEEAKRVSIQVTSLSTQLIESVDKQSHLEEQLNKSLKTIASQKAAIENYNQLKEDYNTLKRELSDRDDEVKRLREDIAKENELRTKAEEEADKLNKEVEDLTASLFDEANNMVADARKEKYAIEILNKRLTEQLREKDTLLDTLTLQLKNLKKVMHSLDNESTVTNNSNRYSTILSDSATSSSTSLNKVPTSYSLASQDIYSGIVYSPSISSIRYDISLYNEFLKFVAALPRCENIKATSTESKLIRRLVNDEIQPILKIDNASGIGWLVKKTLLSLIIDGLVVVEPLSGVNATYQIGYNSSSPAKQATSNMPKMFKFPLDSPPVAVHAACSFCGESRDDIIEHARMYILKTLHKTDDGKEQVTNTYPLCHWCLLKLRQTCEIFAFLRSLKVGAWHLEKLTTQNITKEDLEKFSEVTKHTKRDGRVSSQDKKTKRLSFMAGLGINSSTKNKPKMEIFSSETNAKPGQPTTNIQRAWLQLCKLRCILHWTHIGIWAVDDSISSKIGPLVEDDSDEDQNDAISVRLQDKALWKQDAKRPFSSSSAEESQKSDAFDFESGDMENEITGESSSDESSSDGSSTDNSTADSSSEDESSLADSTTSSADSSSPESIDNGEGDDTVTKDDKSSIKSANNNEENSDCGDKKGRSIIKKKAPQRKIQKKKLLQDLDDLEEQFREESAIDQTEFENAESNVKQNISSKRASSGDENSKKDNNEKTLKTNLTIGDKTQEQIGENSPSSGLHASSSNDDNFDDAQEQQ

Sec2p [2] = target: T1, Sec2p; conditions: GST-Sec2; liposomes with 10 mol% PI4P; PBS, 0.4 mg/ml BSA, 25 °C; remark: listed apart in the source
Sec2p [3] = target: T1, Sec2p; conditions: GST-Sec2; liposomes with 10 mol% PI4P; PBS, 0.4 mg/ml BSA, 25 °C; remark: listed apart in the source
Sec2p [4] = target: T1, Sec2p; conditions: read-out: approximate Kd; GST-Sec2p; 0.05-0.5 mM liposomes with 10 mol% PI4P; PBS, 0.4 mg/ml BSA, 25 °C

**Q.** For PI4P, which “PI4P-binding affinity, % of wildtype” value (Sec2p [1]) is on record?
**A.** ~ 30%

**Q.** And the “PI4P-binding affinity, % of wildtype” value (Sec2p [2])?
**A.** ~ 30%

**Q.** And the “PI4P-binding, % of wildtype” value (Sec2p [3])?
**A.** ~ 10%

**Q.** What about the Kd (Sec2p [4]) of the same substance?
**A.** ~185 µM
